From the supplement of paper PMC10627819

Key:
S. pneumoniae D39V [1] = experiment: fitness (endpoint OD595 vs no drug) (fraction); higher = more growth
Summary of the method: (§1)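 Fitness compares growth at the stationary-phase transition with the robust mean of no-drug control wells, as a ratio of optical densities. The ratio is capped at 1. Wells of 384-well plates held 30 µl, or 55 µl for S. pneumoniae, inoculated at OD595 0.01. Readings at OD595 every 30 min for 14 h at 37 °C were corrected against the first reading.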

B. subtilis 168 [2] = experiment: as above
Summary of the method: as §1

S. pneumoniae D39V [3] = experiment: Bliss interaction score (quartile over a dose matrix) (fitness difference); higher = more antagonism (negative = synergy)
Summary of the method: (§2)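 Fitness here means normalised growth, inferred for single drugs from the combination data. Growth was OD595 at entry into stationary phase, divided by the plate's robust no-drug mean and capped at 1. The Bliss score is observed minus expected fitness, with the expectation being the product, and its quartiles span technical, biological and donor/recipient replicates.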

S. aureus Newman = experiment: as above
Summary of the method: as §2

S. aureus DSM 20231 = experiment: as above
Summary of the method: as §2

B. subtilis 168 [4] = experiment: as above
Summary of the method: as §2
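Wherever Bliss interaction score (quartile over a dose matrix) is given: first quartile when negative (synergy) and third quartile when positive (antagonism).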
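Wherever fitness (endpoint OD595 vs no drug) is given: OD595 on entry to stationary phase over no-drug wells; at most 1.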

O=C(O[C@@H]1Cc2c(O)cc(O)cc2O[C@@H]1c1cc(O)c(O)c(O)c1)c1cc(O)c(O)c(O)c1 [EGCG] + C[C@H]1COc2c(N3CCN(C)CC3)c(F)cc3c(=O)c(C(=O)O)cn1c23 [Levofloxacin]
fitness
Conditions | first compound 6.25 µg/mL | first compound 12.5 µg/mL | first compound 25 µg/mL | first compound 50 µg/mL
B. subtilis 168 [2], partner 0.002 µg/mL | 0.941 | – | – | –
B. subtilis 168 [2], partner 0.0039 µg/mL | 0.89 | 0.629 | – | –
B. subtilis 168 [2], partner 0.0312 µg/mL | 0.05 | 0.038 | 0.0206 | –
B. subtilis 168 [2], partner 0.0625 µg/mL | 0.0332 | 0.0286 | 0.0506 | –
B. subtilis 168 [2], partner 0.125 µg/mL | 0.058 | 0.0419 | 0.0505 | –
S. pneumoniae D39V [1], partner 0.1725 µg/mL | – | 0.876 | 0.815 | 0.868
S. pneumoniae D39V [1], partner 0.2 µg/mL | – | 0.925 | 0.904 | 0.845
S. pneumoniae D39V [1], partner 0.345 µg/mL | – | 0.804 | 0.733 | 0.897
S. pneumoniae D39V [1], partner 0.4 µg/mL | – | 0.832 | 0.826 | 0.671
S. pneumoniae D39V [1], partner 0.69 µg/mL | – | – | 0.777 | –
S. pneumoniae D39V [1], partner 0.8 µg/mL | – | 0.333 | 0.262 | 0.337

fitness, B. subtilis 168 [2], one replicate
Conditions | first compound 6.25 µg/mL | first compound 12.5 µg/mL | first compound 25 µg/mL
partner 0.001 µg/mL | 0.993 | 0.712 | 0.276
partner 0.0078 µg/mL | 0.88 | 0.788 | 0.668

Conditions | Bliss interaction score
B. subtilis 168 [4] | -0.0322
S. aureus DSM 20231 | -0.055
S. aureus Newman | -0.0447
S. pneumoniae D39V [3] | -0.092

CCC[C@@H]1C[C@@H](C(=O)N[C@@H]([C@H]2O[C@H](SC)[C@H](O)[C@@H](O)[C@H]2O)[C@H](C)Cl)N(C)C1 [Clindamycin] + C[C@H]1COc2c(N3CCN(C)CC3)c(F)cc3c(=O)c(C(=O)O)cn1c23 [Levofloxacin]
Conditions | fitness
B. subtilis 168 [2], first compound 0.0625 µg/mL, partner 0.0312 µg/mL | 0.041
B. subtilis 168 [2], first compound 0.0625 µg/mL, partner 0.0625 µg/mL | 0.038
B. subtilis 168 [2], first compound 0.0625 µg/mL, partner 0.125 µg/mL | 0.0416
B. subtilis 168 [2], first compound 0.125 µg/mL, partner 0.0312 µg/mL | 0.0414
B. subtilis 168 [2], first compound 0.125 µg/mL, partner 0.0625 µg/mL | 0.0486
B. subtilis 168 [2], first compound 0.125 µg/mL, partner 0.125 µg/mL | 0.0468
B. subtilis 168 [2], first compound 0.25 µg/mL, partner 0.0312 µg/mL | 0.0473
B. subtilis 168 [2], first compound 0.25 µg/mL, partner 0.0625 µg/mL | 0.0532
B. subtilis 168 [2], first compound 0.25 µg/mL, partner 0.125 µg/mL | 0.0518
S. pneumoniae D39V [1], first compound 0.0125 µg/mL, partner 0.2 µg/mL | 0.759
S. pneumoniae D39V [1], first compound 0.0125 µg/mL, partner 0.4 µg/mL | 0.736
S. pneumoniae D39V [1], first compound 0.0125 µg/mL, partner 0.8 µg/mL | 0.605
S. pneumoniae D39V [1], first compound 0.015 µg/mL, partner 0.1725 µg/mL | 0.909
S. pneumoniae D39V [1], first compound 0.015 µg/mL, partner 0.345 µg/mL | 0.865
S. pneumoniae D39V [1], first compound 0.015 µg/mL, partner 0.69 µg/mL | 0.595
S. pneumoniae D39V [1], first compound 0.025 µg/mL, partner 0.2 µg/mL | 0.478
S. pneumoniae D39V [1], first compound 0.025 µg/mL, partner 0.4 µg/mL | 0.47
S. pneumoniae D39V [1], first compound 0.025 µg/mL, partner 0.8 µg/mL | 0.39
S. pneumoniae D39V [1], first compound 0.03 µg/mL, partner 0.1725 µg/mL | 0.822
S. pneumoniae D39V [1], first compound 0.03 µg/mL, partner 0.345 µg/mL | 0.759
S. pneumoniae D39V [1], first compound 0.03 µg/mL, partner 0.69 µg/mL | 0.546
S. pneumoniae D39V [1], first compound 0.05 µg/mL, partner 0.2 µg/mL | 0.235
S. pneumoniae D39V [1], first compound 0.05 µg/mL, partner 0.4 µg/mL | 0.189
S. pneumoniae D39V [1], first compound 0.05 µg/mL, partner 0.8 µg/mL | 0.15
S. pneumoniae D39V [1], first compound 0.06 µg/mL, partner 0.1725 µg/mL | 0.631
S. pneumoniae D39V [1], first compound 0.06 µg/mL, partner 0.345 µg/mL | 0.601
S. pneumoniae D39V [1], first compound 0.06 µg/mL, partner 0.69 µg/mL | 0.399

fitness, B. subtilis 168 [2], one replicate
Conditions | first compound 0.0039 µg/mL | first compound 0.0078 µg/mL | first compound 0.0156 µg/mL | first compound 0.0625 µg/mL | first compound 0.125 µg/mL | first compound 0.25 µg/mL
partner 0.001 µg/mL | – | – | – | 0.715 | 0.554 | 0.391
partner 0.002 µg/mL | 0.97 | 0.86 | 0.833 | 0.558 | 0.442 | 0.338
partner 0.0039 µg/mL | 0.968 | 0.872 | 0.816 | 0.648 | 0.511 | 0.389
partner 0.0078 µg/mL | 0.967 | 0.854 | 0.815 | – | – | –

Conditions | Bliss interaction score
B. subtilis 168 [4] | 0.0326
S. aureus DSM 20231 | 0.0785
S. aureus Newman | 0.0891
S. pneumoniae D39V [3] | 0.0885
